Source: ChEMBL document CHEMBL1201862, “PubChem BioAssay data set” (2004)
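How tested: cells in 96-well plates exposed to compound for 48 hours at five concentrations. GI50 is the concentration that inhibits growth by half.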 Calls of active or inactive are those of the source. Cut-off read from the data, not from the text of the source: active = GI50 up to about 1.1 µM and inactive = higher.

Experiments:
Experiment in all cases: NCI anticancer screen, dose series, 48 h
[1] = test system: A549
[2] = test system: RXF 393
[3] = test system: CAKI-1
[4] = test system: DU-145
[5] = test system: HOP-92
[6] = test system: NCI/ADR-RES
[7] = test system: SNB-75
[8] = test system: T47D
[9] = test system: OVCAR-4
[10] = test system: PC-3
[11] = test system: K562
[12] = test system: HCT-116
[13] = test system: SN12C
[14] = test system: Hs-578T
[15] = test system: NCI-H23
[16] = test system: EKVX
[17] = test system: SNB-19
[18] = test system: UO-31
[19] = test system: 786-0

Measured: GI50

COCOC1/C=C/CCCCC2=C(C)C=C(C1)O2 (stereo not drawn)
inactive: [1] > 100 µM | [2] > 100 µM | [3] > 100 µM | [4] > 100 µM | [5] > 100 µM | [6] > 100 µM | [7] > 100 µM | [8] > 100 µM | [9] > 100 µM | [10] > 100 µM | [11] > 100 µM | [12] > 100 µM | [13] > 100 µM | [14] > 100 µM | [15] > 100 µM | [16] > 100 µM | [17] > 100 µM | [18] > 100 µM | [19] > 100 µM

COc1cc(S(=O)(=O)Nc2ccc(-c3csc(/N=C\c4ccccc4O)n3)cc2)ccc1Cl
inactive: [1] 63.1 µM | [2] 35.6 µM | [3] > 100 µM | [4] 45.9 µM | [5] > 100 µM | [6] > 100 µM | [7] 55.2 µM | [8] 16.9 µM | [9] 44.9 µM | [10] 39.4 µM | [11] 28.2 µM | [12] 43.1 µM | [13] 65.2 µM | [14] > 100 µM | [15] 52.7 µM | [16] 29.8 µM | [17] 39.3 µM | [18] 31 µM | [19] > 100 µM

CCOP(=O)(OCC)Oc1c(OC)c2[nH]c(C(=O)OC)cc2c2c(C(=O)O)c[nH]c12
inactive: [1] > 100 µM | [2] > 100 µM | [3] > 100 µM | [4] > 100 µM | [5] > 100 µM | [6] > 100 µM | [7] > 100 µM | [8] > 100 µM | [9] > 100 µM | [10] > 100 µM | [11] > 100 µM | [12] > 100 µM | [13] > 100 µM | [14] > 100 µM | [15] > 100 µM | [16] > 100 µM | [17] > 100 µM | [18] > 100 µM | [19] > 100 µM

O=C1NNC2(C(=O)N1)c1ccccc1-c1ccccc12
inactive: [1] > 10 µM | [2] > 10 µM | [3] > 10 µM | [4] > 10 µM | [5] > 10 µM | [6] > 10 µM | [7] > 10 µM | [8] 2.55 µM | [9] > 10 µM | [10] > 10 µM | [11] > 10 µM | [12] > 10 µM | [13] > 10 µM | [14] > 10 µM | [15] > 10 µM | [16] 6.71 µM | [17] > 10 µM | [18] > 10 µM | [19] > 10 µM

Cc1ccc(S(=O)(=O)N2CCNCCN(S(=O)(=O)c3ccc(C)cc3)CCN(S(=O)(=O)c3ccc(C)cc3)CC2)cc1
inactive: [1] > 100 µM | [2] > 100 µM | [3] > 100 µM | [4] > 100 µM | [5] 70.8 µM | [6] > 100 µM | [7] 54.3 µM | [8] > 100 µM | [9] > 100 µM | [10] > 100 µM | [11] > 100 µM | [12] > 100 µM | [13] > 100 µM | [14] > 100 µM | [15] > 100 µM | [16] > 100 µM | [17] > 100 µM | [18] > 100 µM | [19] > 100 µM

COc1nc2nccnc2c(=O)n1C
inactive: [1] > 10 µM | [2] > 10 µM | [3] > 10 µM | [4] > 10 µM | [5] > 10 µM | [6] > 10 µM | [7] > 10 µM | [8] > 10 µM | [9] > 10 µM | [10] > 10 µM | [11] > 10 µM | [12] > 10 µM | [13] > 10 µM | [14] > 10 µM | [15] > 10 µM | [16] > 10 µM | [17] > 10 µM | [18] > 10 µM | [19] > 10 µM

CCCCn1cc(C(=O)O)c(=O)c2c3sccc3ccc21
inactive: [1] > 100 µM | [2] > 100 µM | [3] > 100 µM | [4] > 100 µM | [5] > 100 µM | [6] 19.9 µM | [7] 25.8 µM | [8] > 100 µM | [9] > 100 µM | [10] > 100 µM | [11] > 100 µM | [12] > 100 µM | [13] > 100 µM | [14] > 100 µM | [15] > 100 µM | [16] > 100 µM | [17] > 100 µM | [18] 20 µM | [19] > 100 µM
